Experimental data taken from patent US20240325358A1, “PHARMACEUTICAL COMPOSITION FOR PREVENTION OR TREATMENT OF ALLERGIC SKIN DISEASE OR SKIN PRURITUS” (CUePEAK BIO. Co., Ltd., priority 2023, published 2024).

Tests used:
filaggrin [1] = test: Expression amount of filaggrin in NHEK by RNA extraction and RT-qPCR; format: cell-based, human; settings: NHEK, 0, 0.5, 1.0 and 2.5 μM, after 24 hours of treatment; FIGS. 1A and 1B
From the text: (§1) • A human epidermal cell line (normal human epidermal keratinocyte; NHEK) is a human fetal transdermal cell line and was used after being distributed from ATCC.
(§2) It was a cell obtained from primary culture and was used for confirming biochemical changes within the cell by ABT-751 or TN-16 under normal conditions, not disease conditions. • Experimental animal: Since a hos:HR-1(hairless) mouse has no hair in skin disease research, it allows skin-related research to be performed by directly applying a drug on skin or inducing skin diseases by chemical or biological allergen.
A normal human epidermal keratinocyte (NHEK) on which ABT-751, TN-16, or a control sample was applied, or a mouse skin tissue was dissolved using a TRI reagent (MRC), and then RNA in cells was extracted using Rneasy Mini Kit (Qiagen).
The extracted RNA was reverse-transcribed with ImProm-II TM Reverse Transcription Kit (Promega) to synthesize cDNA, and then an amount of filaggrin was measured by a quantitative PCR (qPCR) through Real-Time PCR Detection System (Bio-Rad, CFX96).
The normal human epidermal keratinocytes (NHEK) in culture was treated with ABT-751 and TN-16, respectively to measure the expression amount of filaggrin and confirm a change in cell differentiation degree. […]

HR-1 mouse skin = test: Skin barrier function test (skin moisture loss, skin barrier index) in HR-1 mouse; format: in vivo, hos:HR-1 mouse; settings: 4% formulation applied on back skin once a day, vs 0% formulation, effect grew with days of application, FIG. 4
From the text: as §2
In addition, it has a skin thickness of about 0.4 mm at 8 to 10 weeks of age, which is similar to the skin of a human, and is useful for research on pathogenesis mechanism of skin diseases and confirmation of biochemical changes in skin tissue.
2 hours after applying ABT-751 or TN-16, skin moisture loss, a skin barrier index, and a comprehensive index on the application area were measured for 3 weeks with a precision measuring instrument (Courage-khazaka electronic GmbH, MPA10), and recorded.
ABT-751 and TN-16 of 0, 1, 2, and 4% formulations were applied on the back skin of a hairless hos:HR-1 mouse (hereinafter, referred to as HR-1 mouse) in the same amount once a day for 3 weeks, respectively.
After each application, skin moisture loss and a skin barrier index were measured by the method of the test example.
After applying the control group (0% formulation ABT-751 or 0% formulation TN-16) and ABT-751 or TN-16 of a 4% formulation, respectively, skin moisture loss and a skin barrier index were measured, and the results are shown in FIG. 4.

[2] = system: normal human epidermal keratinocytes (NHEK); test: Cell differentiation degree in normal human epidermal keratinocytes; format: cell-based; settings: 24 hours of treatment, compared with untreated control group, FIG. 2
From the text: as §1, §2
The normal human epidermal keratinocytes (NHEK) in culture was treated with ABT-751 and TN-16, respectively to measure the expression amount of filaggrin and confirm a change in cell differentiation degree.
NHEK was treated with ABT-751 and TN-16 by concentrations of 0, 0.5, 1.0, and 2.5 μM, respectively, and after 24 hours of treatment, the expression amount of filaggrin and the cell differentiation degree were observed.

filaggrin [3] = test: Expression amount of filaggrin in HR-1 mouse back skin tissue (RT-qPCR and Western blot); format: in vivo, hos:HR-1 mouse; settings: HR-1 mouse back skin, 1, 2 and 4% formulations applied once a day, vs 0% formulation control; RNA and protein; FIGS. 3A to 3C
From the text: as §2
In addition, it has a skin thickness of about 0.4 mm at 8 to 10 weeks of age, which is similar to the skin of a human, and is useful for research on pathogenesis mechanism of skin diseases and confirmation of biochemical changes in skin tissue. […]
The extracted RNA was reverse-transcribed with ImProm-II TM Reverse Transcription Kit (Promega) to synthesize cDNA, and then an amount of filaggrin was measured by a quantitative PCR (qPCR) through Real-Time PCR Detection System (Bio-Rad, CFX96). […]
The thin film was reacted with an ECL solution (Thermo Fisher), and the protein after the reaction was detected using a luminescence reaction measuring instrument (Fusion Solo, Vilber). […]
Each of RNA and protein was extracted from the back skin tissue on which ABT-751 or TN-16 was applied, respectively, by the method of the text example and the expression amount of filaggrin was measured, and the results are shown in FIG. 3.

Row | SMILES | expression amount of filaggrin (filaggrin [1]) | skin barrier index (HR-1 mouse skin) | skin moisture loss (HR-1 mouse skin) | cell differentiation degree [2] | expression amount of filaggrin in the skin tissue (filaggrin [3])
1 | COc1ccc(S(=O)(=O)Nc2cccnc2Nc2ccc(O)cc2)cc1 [ABT-751, N-[2-[(4-Hydroxyphenyl)amino]pyridin-3-yl]-4-methoxybenzenesulfonamide] | increased depending on the ABT-751 and TN-16 treatment concentrations | increased | decreased | significantly increased | increased in a concentration-dependent manner
2 | C/C(Nc1ccccc1)=C1/C(=O)NC(Cc2ccccc2)C1=O (stereo not drawn) [TN-16, 3-[1-(phenylamino)ethylidene]-5-(phenylmethyl)-2,4-pyrrolidinedione] | increased depending on the ABT-751 and TN-16 treatment concentrations | increased | decreased |  | increased in a concentration-dependent manner
